“Also recorded” adds a separate entry of the source.
Legend:
FGF23 = target: T1, FGF23 (Homo sapiens, UniProt Q9GZV9); details: individuals with XLH treated with burosumab; cited from earlier work
T1 construct: individuals treated with burosumab (Crysvita), an FGF23-neutralizing antibody therapy for XLH; endogenous in cells; host or cells: patients with XLH (in vivo, circulating hormone)
T1 sequence (Q9GZV9 25-251): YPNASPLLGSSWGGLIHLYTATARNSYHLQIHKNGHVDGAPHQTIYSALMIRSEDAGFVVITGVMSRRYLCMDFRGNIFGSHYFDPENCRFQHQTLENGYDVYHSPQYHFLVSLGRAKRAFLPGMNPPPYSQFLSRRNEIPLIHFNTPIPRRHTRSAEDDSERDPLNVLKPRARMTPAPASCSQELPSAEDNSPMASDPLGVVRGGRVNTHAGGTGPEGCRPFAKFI

FGF23 synthesis in bone = test: Stimulation of FGF23 synthesis in bone; assay type: in vivo; details: resulting in unsuppressed FGF23 levels
WT mice = test: L-BAIBA or D-BAIBA in the drinking water of WT mice: urine Pi excretion, plasma Pi, plasma intact FGF23; assay type: in vivo, mouse
Experimental: FIG. 5A: 5 mo. old males treated with CO, L-BAIBA, or D-BAIBA in the drinking water for 5 days. FIGS. 5B-5D: same 5 mo. old males from FIG. 5A treated for 30 days, following sacrifice in addition to urine Pi/urine creatinine, plasma Pi and plasma intact FGF23 were determined. Data are mean±SEM, ****p<0.00002, ***p=0.0002, **p=0.002, *p=0.03 vs. CO.
Mouse lines are back-crossed to C57BL6 mice (Charles river laboratories strain ID 027) to reduce variation caused by genetic background and fed a standard chow containing 0.3% bio-available Pi (Teklad 2018S) or for selective experiments a high Pi (HPD diet, 1.2% bio-available Pi, Teklad TD85349). L-BAIBA can be supplied in the drinking water (see Chemical Reagents below). PCR-based genotyping can be done on each experimental animal using gDNA prepared by alkaline lysis from a tail- or ear-snip to verify presence of the Pit1 null, Pit2 null, HA-hPIT1^tg/+ and HSA-Cre^tg/+ alleles.
All blood and urine studies for calcium, creatinine, phosphorus, iPTH, and c/iFGF23 can be performed using commercially available Stanbio kits, Immutopics and R&D ELISAs, or LC-MS/MS-based methods. […] Results can be analyzed using a Perkin Elmer 1420 Multilabel Counter Victor 3 currently located at the Anlyan Center, S-120 or using an Applied Biosystems API6500 QTrap interfaced to a Shimadzu HPLC (LC-20AD, SIL-20AC, CTO-20A) currently located in Anlyan Center, S-260. […]

MRGPRD = target: T2, MRGPRD (Mus musculus, UniProt Q91ZB8); details: young mice, cited from earlier work
T2 construct: young osteocytes which express high levels of MRGPRD; endogenous in cells; host or cells: osteocytes of young mice (in vivo, hind-limb suspension)
T2 sequence (Q91ZB8 1-321): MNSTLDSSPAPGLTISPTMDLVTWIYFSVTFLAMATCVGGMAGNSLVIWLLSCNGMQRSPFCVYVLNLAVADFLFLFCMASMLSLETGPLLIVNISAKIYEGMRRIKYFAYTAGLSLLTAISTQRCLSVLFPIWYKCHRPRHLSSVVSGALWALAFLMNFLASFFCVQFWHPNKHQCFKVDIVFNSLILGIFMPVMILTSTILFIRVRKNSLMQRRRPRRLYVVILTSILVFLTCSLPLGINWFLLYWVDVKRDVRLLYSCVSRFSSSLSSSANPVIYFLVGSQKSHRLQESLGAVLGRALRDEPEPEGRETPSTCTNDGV

Compound	fatigue and endurance reported by treated individuals (FGF23)	FGF23 synthesis in bone (FGF23 synthesis in bone)	urine Pi excretion (urine Pi/urine creatinine) (WT mice; 5 mo. old male WT mice, in the drinking water for 5 or 30 days, vs. CO)	FGF23 levels (plasma intact FGF23) (WT mice; 5 month old WT mice treated with L-BAIBA)	osteocyte survival (MRGPRD; activation of MRGPRD, maintaining mitochondrial integrity)	bone loss caused by hind-limb suspension (MRGPRD)
burosumab: an FGF23-neutralizing antibody therapy for XLH	improved fatigue and endurance	–	–	–	–	–
C[C@@H](CN)C(=O)O [L-BAIBA, (S)-3-amino-2-methylpropanoic acid]	–	able to stimulate FGF23 synthesis in bone	increased renal Pi-excretion; also recorded: increases urine Pi excretion; also recorded: caused a renal Pi leak	inappropriately normal	promotes osteocyte survival	prevents bone loss
